Common to all, as to type: cell-based
The target in assay [1] is T1, SARS-CoV-2 E protein (Severe acute respiratory syndrome coronavirus 2, UniProt P0DTC4).
For another assay, the target named is SARS-CoV-2 3a protein (Severe acute respiratory syndrome coronavirus 2, UniProt P0DTC3).
The next assay relates to SARS-CoV-2. The conditions noted are these: for protection, effect on cell survival (FIG. 24 legend): individual 3a protein inhibitor at a concentration of 3 μM; for cell survival (in words): sole compound at 3, FIG. 24; for effectiveness of compounds on their own: sole compounds, protection of cells against viral death.
Assay [2] concerns the target T1, SARS-CoV-2 E protein. The source holds these as a separate data set.
In assay [3] the target is T1, SARS-CoV-2 E protein. The source holds these as a separate data set.
[4] abbreviates: 3000 molecules screened against E protein.
The mark [5] stands for this setting: 3,000 molecules screened against 3a protein.

Where two headings read alike, the source gives them in different places.

Sequence of SARS-CoV-2 3a protein (P0DTC3 whole entry, looked up): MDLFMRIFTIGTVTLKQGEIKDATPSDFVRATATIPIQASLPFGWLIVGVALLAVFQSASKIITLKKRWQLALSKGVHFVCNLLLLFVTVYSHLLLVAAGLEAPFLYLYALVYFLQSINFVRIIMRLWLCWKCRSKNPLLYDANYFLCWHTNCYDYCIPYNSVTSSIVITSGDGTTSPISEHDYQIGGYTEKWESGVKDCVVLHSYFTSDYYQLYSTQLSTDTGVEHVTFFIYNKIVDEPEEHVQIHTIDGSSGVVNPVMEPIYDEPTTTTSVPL
T1 sequence (P0DTC4 whole entry, looked up): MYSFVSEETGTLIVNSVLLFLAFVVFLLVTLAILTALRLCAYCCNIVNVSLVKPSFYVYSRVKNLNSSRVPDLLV

Turning to `Nc1ncn([C@@H]2O[C@H](CO)[C@@H](O)[C@H]2O)c(=O)n1` [Azacytidine, 4-Amino-1-β-D-ribofuranosyl-s-triazin-2(1H)-one], the “outcome of screen: SARS-CoV-2 E protein channel blocker” value at SARS-CoV-2 E protein [1] (setting [4]) is listed as “can be used as SARS-CoV-2 E protein channel blocker”.
For `C1CNCCNCCNCCN1` [Cyclen, 1,4,7,10-Tetraazacyclododecane], the “outcome of screen: SARS-CoV-2 E protein channel blocker” value at SARS-CoV-2 E protein [1] (setting [4]) is on record as “can be used as SARS-CoV-2 E protein channel blocker”.
Consider `CCN(CC)CCN(Cc1ccc(-c2ccc(C(F)(F)F)cc2)cc1)C(=O)Cn1c(SCc2ccc(F)cc2)nc(=O)c2c1CCC2` [Darapladib, N-(2-Diethylaminoethyl)-2-[2-[(4-fluorophenyl)methylsulfanyl]-4-oxo-6,7-dihydro-5H-cyclopenta[d]pyrimidin-1-yl]-N-[[4-[4-(trifluoromethyl)phenyl]phenyl]methyl]acetamide], for which the “outcome of screen: SARS-CoV-2 3a protein inhibitor” value at SARS-CoV-2 3a protein (setting [5]) is recorded as “can be used as SARS-CoV-2 3a protein inhibitor”. Also, in the assay on SARS-CoV-2, the “protection, effect on cell survival (FIG. 24 legend)” value is “near full protection”; the “cell survival (in words)” value is listed as “full survival”; the “effectiveness of compounds on their own” value is “most effective”.
Consider `O=c1[nH]c(=O)n(C2CC(O)C(CO)O2)cc1F` (stereo not shown) [Floxuridine, 5-Fluoro-1-[4-hydroxy-5-(hydroxymethyl)tetrahydrofuran-2-yl]-1H-pyrimidine-2,4-dione], for which, at SARS-CoV-2 3a protein (setting [5]), the “outcome of screen: SARS-CoV-2 3a protein inhibitor” value was “can be used as SARS-CoV-2 3a protein inhibitor”.
With `Cc1ncc(NC(=O)c2ccc(CN3CCN(C)CC3)c(C(F)(F)F)c2)cc1Nc1nccc(-c2cccnc2)n1` [Flumatinib, 4-[(4-methylpiperazin-1-yl)methyl]-N-[6-methyl-5-[(4-pyridin-3-ylpyrimidin-2-yl)amino]pyridin-3-yl]-3-(trifluoromethyl)benzamide], at SARS-CoV-2 3a protein (setting [5]), the “outcome of screen: SARS-CoV-2 3a protein inhibitor” value was “can be used as SARS-CoV-2 3a protein inhibitor”. In addition, in the assay with SARS-CoV-2, the “protection, effect on cell survival (FIG. 24 legend)” value was “near full protection”; the “cell survival (in words)” value is recorded as “near full survival”; the “effectiveness of compounds on their own” value is on record as “most effective”.
Take `Cc1ccc(S(=O)(=O)NC(=O)NN2CC3CCCC3C2)cc1` (stereo not shown) [Gliclazide, 1-(3-azabicyclo(3.3.0)oct-3-yl)-3-(p-tolylsulfonyl)urea]: the “outcome of screen: SARS-CoV-2 E protein channel blocker” value at SARS-CoV-2 E protein [1] (setting [4]) was “can be used as SARS-CoV-2 E protein channel blocker”. The “bacterial growth in negative assay” value on SARS-CoV-2 E protein [2] is recorded as “enhance bacterial growth”. Besides, at SARS-CoV-2 E protein [3], the “bacterial growth in positive assay” value is reported as “inhibited growth”.
Turning to `C[C@H]1O[C@H](OC2[C@@H](O)[C@@H](O)C(O)[C@H](O)[C@H]2O)[C@@H](N)C[C@@H]1N=C(N)C(=O)O` (stereo partly drawn) [Kasugamycin, 2-amino-2-[(2R,3 S,5 S,6R)-5-amino-2-methyl-6-[(2R,3 S,5S,6S)-2,3,4,5,6-pentahydroxycyclohexyl]oxyoxan-3-yl]iminoacetic acid], the “outcome of screen: SARS-CoV-2 E protein channel blocker” value on SARS-CoV-2 E protein [1] (setting [4]) is listed as “can be used as SARS-CoV-2 E protein channel blocker”. Also, on SARS-CoV-2 3a protein (setting [5]), the “outcome of screen: SARS-CoV-2 3a protein inhibitor” value is on record as “can be used as SARS-CoV-2 3a protein inhibitor”.
Regarding `CCNCCS(=O)(=O)NC[C@@]1(c2ccccc2)SC(NC(=O)C(C)(C)C)=NN1C(=O)C(C)(C)C` [Litronesib, N-[(5R)-4-(2,2-dimethylpropanoyl)-5-[[2-(ethylamino)ethylsulfonylamino]methyl]-5-phenyl-1,3,4-thiadiazol-2-yl]-2,2-dimethylpropanamide], the “outcome of screen: SARS-CoV-2 3a protein inhibitor” value at SARS-CoV-2 3a protein (setting [5]) is recorded as “can be used as SARS-CoV-2 3a protein inhibitor”.
Take `NCCCCN(Cc1nc2ccccc2[nH]1)[C@H]1CCCc2cccnc21` [Mavorixafor, N-(1H-benzimidazol-2-ylmethyl)-N-[(8S)-5,6,7,8-tetrahydroquinolin-8-yl]butane-1,4-diamine]: on SARS-CoV-2 E protein [1] (setting [4]), the “outcome of screen: SARS-CoV-2 E protein channel blocker” value was “can be used as SARS-CoV-2 E protein channel blocker”.
On the same count and under the same terms, under `Cc1cc(C)c(NC(=O)CN(CC(=O)O)CC(=O)O)c(C)c1Br` [Mebrofenin, 2-[[2-(3-bromo-2,4,6-trimethylanilino)-2-oxoethyl]-(carboxymethyl)amino]acetic acid] stands “can be used as SARS-CoV-2 E protein channel blocker”.
As for `CC12CC3CC(C)(C1)CC(N)(C3)C2` [Memantine, 1-amino-3,5-dimethyladamantane], the “outcome of screen: SARS-CoV-2 E protein channel blocker” value at SARS-CoV-2 E protein [1] (setting [4]) is recorded as “can be used as SARS-CoV-2 E protein channel blocker”. Moreover, the “bacterial growth in negative assay” value at SARS-CoV-2 E protein [2] was “enhance bacterial growth”. The “bacterial growth in positive assay” value at SARS-CoV-2 E protein [3] is listed as “inhibited growth”.
On to `N=C(N)c1ccc(OCCCCCOc2ccc(C(=N)N)cc2)cc1` [Pentamidine, 4,4′-[pentane-1,5-diylbis(oxy)]dibenzenecarboximidamide], for which the “outcome of screen: SARS-CoV-2 3a protein inhibitor” value on SARS-CoV-2 3a protein (setting [5]) is given as “can be used as SARS-CoV-2 3a protein inhibitor”.
With `c1cc(CN2CCCNCCNCCCNCC2)ccc1CN1CCCNCCNCCCNCC1` [Plerixafor, 1-[[4-(1,4,8,11-tetrazacyclotetradec-1-ylmethyl)phenyl]methyl]-1,4,8,11-tetrazacyclotetradecane], the “outcome of screen: SARS-CoV-2 E protein channel blocker” value on SARS-CoV-2 E protein [1] was “can be used as SARS-CoV-2 E protein channel blocker”. Further, the “outcome of screen: SARS-CoV-2 3a protein inhibitor” value on SARS-CoV-2 3a protein is given as “can be used as SARS-CoV-2 3a protein inhibitor”.
For the molecule `CCO[C@@H](Cc1ccc(OCCn2c(C)ccc2-c2ccc(SC)cc2)cc1)C(=O)O` [Saroglitazar Magnesium, (αS)-α-Ethoxy-4-[2-[2-methyl-5-[4-(methylthio)phenyl]-1H-pyrrol-1-yl]ethoxy]benzenepropanoic Acid], the “outcome of screen: SARS-CoV-2 E protein channel blocker” value at SARS-CoV-2 E protein [1] (setting [4]) is reported as “can be used as SARS-CoV-2 E protein channel blocker”.
Regarding `CN[C@@H]1[C@H](O)[C@H](NC)[C@H]2O[C@@]3(O)C(=O)C[C@@H](C)O[C@H]3O[C@@H]2[C@H]1O` [Spectinomycin], the “outcome of screen: SARS-CoV-2 3a protein inhibitor” value on SARS-CoV-2 3a protein (setting [5]) was “can be used as SARS-CoV-2 3a protein inhibitor”.
On to Capreomycin, for which, on SARS-CoV-2 3a protein (setting [5]), the “outcome of screen: SARS-CoV-2 3a protein inhibitor” value is “can be used as SARS-CoV-2 3a protein inhibitor”.

For the origin of these results see patent US20230190769A1, “E PROTEIN CHANNEL BLOCKERS AND ORF3 INHIBITORS AS ANTI-COVID-19 AGENTS” (priority 2020, published 2023).
